# Results taken from ChEMBL document CHEMBL1151911, “A microwave-assisted facile regioselective Fischer indole synthesis and antitubercular evaluation of novel 2-aryl-3,4-dihydro-2H-thieno[3,2-b]indoles” (2009).
# System: Mycobacterium tuberculosis
# Assay: Antimycobacterial activity against Mycobacterium tuberculosis H37Rv
# Assay type: functional
row,Compound,MIC
1,Fc1ccc2[nH]c3c(c2c1)SC(c1ccccc1)C3 (stereo unspecified),6.25 µg/mL
2,Clc1ccc2[nH]c3c(c2c1)SC(c1ccccc1)C3 (stereo unspecified),12.5 µg/mL
3,Fc1cccc(C2Cc3[nH]c4ccccc4c3S2)c1 (stereo unspecified),3.13 µg/mL
4,Clc1ccc(C2Cc3[nH]c4ccc(Cl)cc4c3S2)cc1 (stereo unspecified),12.5 µg/mL
5,Fc1ccc2[nH]c3c(c2c1)SC(c1ccc(Cl)cc1)C3 (stereo unspecified),1.56 µg/mL
6,Cc1ccc(C2Cc3[nH]c4ccc(F)cc4c3S2)cc1 (stereo unspecified),3.13 µg/mL
7,c1ccc(C2Cc3[nH]c4ccccc4c3S2)cc1 (stereo unspecified),25 µg/mL
8,Clc1ccc2[nH]c3c(c2c1)SC(c1ccccc1Cl)C3 (stereo unspecified),3.13 µg/mL
9,CC(C)c1ccc(C2Cc3[nH]c4ccc(Cl)cc4c3S2)cc1 (stereo unspecified),0.78 µg/mL
10,Fc1ccc2[nH]c3c(c2c1)SC(c1ccccc1Cl)C3 (stereo unspecified),1.76 µg/mL
11,CC(C)c1ccc(C2Cc3[nH]c4ccc(F)cc4c3S2)cc1 (stereo unspecified),0.78 µg/mL
12,Clc1ccc(C2Cc3[nH]c4ccccc4c3S2)c(Cl)c1 (stereo unspecified),1.76 µg/mL
13,Fc1ccc(C2Cc3[nH]c4ccc(Cl)cc4c3S2)cc1 (stereo unspecified),3.13 µg/mL
14,Cc1ccc(C2Cc3[nH]c4ccccc4c3S2)cc1 (stereo unspecified),6.25 µg/mL
15,Clc1ccccc1C1Cc2[nH]c3ccccc3c2S1 (stereo unspecified),6.25 µg/mL
16,Brc1ccccc1C1Cc2[nH]c3ccccc3c2S1 (stereo unspecified),3.13 µg/mL
17,Clc1ccc(C2Cc3[nH]c4ccc(Cl)cc4c3S2)c(Cl)c1 (stereo unspecified),0.78 µg/mL
18,Cc1ccc(C2Cc3[nH]c4ccc(Cl)cc4c3S2)cc1 (stereo unspecified),6.25 µg/mL
19,Clc1ccc(C2Cc3[nH]c4ccccc4c3S2)cc1 (stereo unspecified),12.5 µg/mL
20,O=[N+]([O-])c1cccc(C2Cc3[nH]c4ccccc4c3S2)c1 (stereo unspecified),1.76 µg/mL
21,CC(C)c1ccc(C2Cc3[nH]c4ccccc4c3S2)cc1 (stereo unspecified),0.78 µg/mL
22,Fc1ccc2[nH]c3c(c2c1)SC(c1ccc(Cl)cc1Cl)C3 (stereo unspecified),0.4 µg/mL
23,CC[C@@H](CO)NCCN[C@@H](CC)CO [ETHAMBUTOL],1.56 µg/mL
24,NNC(=O)c1ccncc1 [ISONIAZID],0.05 µg/mL
25,NC(=O)c1cnccn1 [PYRAZINAMIDE],6.25 µg/mL
26,CO[C@H]1/C=C/O[C@@]2(C)Oc3c(C)c(O)c4c(O)c(c(/C=N/N5CCN(C)CC5)c(O)c4c3C2=O)NC(=O)/C(C)=C\C=C\[C@H](C)[C@H](O)[C@@H](C)[C@@H](O)[C@@H](C)[C@H](OC(C)=O)[C@@H]1C [RIFAMPIN],0.1 µg/mL
